“And” between values parts separate entries of the source, which are not always exact repeats. Equal entries are not always repeated. Where two headings read alike, the source gives them in different places.
Assays:
[1] = molecular target: T1, InhA^WT (Mycobacterium tuberculosis, UniProt P9WGR1); assay type: biochemical
[2] = molecular target: T1, InhA^WT; assay type: binding
[3] = test system: InhA; conditions: cited from earlier work

T1 sequence (P9WGR1 whole entry, looked up): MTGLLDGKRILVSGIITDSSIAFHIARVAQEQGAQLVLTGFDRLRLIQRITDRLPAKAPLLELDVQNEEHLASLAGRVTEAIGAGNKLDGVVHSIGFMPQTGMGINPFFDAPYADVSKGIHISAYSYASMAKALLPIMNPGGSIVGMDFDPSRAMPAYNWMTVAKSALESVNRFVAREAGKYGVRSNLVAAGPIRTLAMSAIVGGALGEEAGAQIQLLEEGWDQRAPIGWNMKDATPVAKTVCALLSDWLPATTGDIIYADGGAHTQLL

## CCCCCCc1ccc(Oc2ccccc2C)c(O)c1 [PT70, 2-(o-tolyoxy)-5-hexylphenol]
[1]
  Ki^app/Ki*^app: 10.8
  k5: 0.40 ± 0.01 min⁻¹
  k6: 0.025 ± 0.002 min⁻¹
  tR (1/k6): 40 ± 2 min
  ΔΔG: 1.41 and 1.41 kcal mol^−1
[1]; read-out: Ki*^app
  Ki: 24 nM and 23.7 nM
[1]; read-out: Ki^app
  Ki: 256 ± 38 nM
[2]
  tR (^32P- NAD): 37 ± 2 min
[3]
  residence time: 40 min
[3]; slow-onset, tight binding inhibitor
  Ki: 0.6 nM

## Cc1ccccc1Oc1ccc(Cn2cc(-c3ccccc3)nn2)cc1O [PT163, 5-((4-phenyl-1H-1,2,3-triazol-1-yl)methyl)-2-(o-tolyloxy)phenol]
[1]
  k5: 0.44 ± 0.06 min⁻¹
  k6: 0.011 ± 0.001 min⁻¹
  tR (1/k6): 94 ± 3 min
  ΔΔG: 2.26 kcal/mol
[2]
  tR (^32P- NAD): 114 min and 114 ± 18 min
